From patent US20240125729A1, “METHODS AND RELATED ASPECTS OF DETECTING TARGET MOLECULES USING CYCLIC VOLTAMMETRY” (THE JOHNS HOPKINS UNIVERSITY, priority 2021, published 2024)
“And” between values parts separate entries of the source, which are not always exact repeats. Identical values can stand only once.

Experiments:
procaine-binding aptamer [1] = assay: Square wave voltammetry calibration of procaine-binding E-AB sensors; conditions: 100 Hz, amplitude 50 mV, step 1 mV, read-out: KD (dissociation constant) by square-wave voltammetry
Experimental: FIG. 12 is a plot showing a calibration curve for procaine-binding E-AB sensors obtained by square wave voltammetry. The Hill's coefficient and dissociation constant obtained were 0.97±0.05 and 1.9±0.2 mM, respectively. Each point represents the average of 5·measurements at a frequency of 100 Hz, amplitude of 50 mV, and step potential of 1 mV.
These sequences were purchased modified on the 5′end with hexanethiol and on the 3′end with MB, and double HPLC purified. To prepare aptamer solutions for electrode modification, 1 μL of 100 μM of the modified sequences was incubated with 2 μL of 5 mM TCEP solution in water for 1 hour to reduce the disulfide bonds. Then, we diluted the aptamer solutions in 1 mM 6-mercaptohexanol aqueous solution to a final aptamer concentration of 500 nM.
Electrochemical measurements. Gold working (PN 002314, d=1.6 mm) and coiled platinum wire counter electrodes (PN 012961) were purchased from ALS Inc. (Japan). Ag/AgCl (1M KCl) reference electrodes (PN CHI111) were purchased from CH Instruments (USA). […] Cyclic voltammograms were recorded at different scan rates in the potential window from −0.5 V to +0.1 V vs Ag/AgCl (1M KCl). Square-wave voltammograms were recorded from 0 V to −0.5 V vs Ag/AgCl (1M KCl) with an amplitude of 50 mV, a step size of 1 mV, and at 300 Hz. […]
(§1) Electrode modification. […] After rinsing with water, electrodes were ready for use. […]

procaine-binding aptamer [2] = assay: Cyclic voltammetry ΔEP interrogation of procaine-detecting E-AB sensors in undiluted serum
Experimental: (§2) ΔEP-based interrogation of E-AB sensors supports molecular measurements in complex media such as undiluted serum. Moreover, the approach can be used to interrogate E-AB sensors detecting different molecular targets. […] Furthermore, the relative change in ΔEP at 10 mM tobramycin was 30% less than the gain seen in phosphate-buffered saline. Both of these effects were previously reported for serum tobramycin E-AB measurements performed by chronoamperometry, confirming that ΔEP is not more prone to fouling than, for example, chronoamperometric current decay lifetimes. […] Last, procaine-detecting E-AB sensors presented the largest change in ΔEP, corresponding to a relative decrease of ˜80% at saturating procaine concentrations (FIG. 11C). Based on our calibration curve, the procaine-binding aptamer has a KD of ˜500 μM, slightly better than the affinity obtained by, for example, square-wave voltammetry (KD˜2 mM, FIG. 12). […]
(§3) Electrochemical measurements. […] Cyclic voltammograms were recorded at different scan rates in the potential window from −0.5 V to +0.1 V vs Ag/AgCl (1M KCl). Square-wave voltammograms were recorded from 0 V to −0.5 V vs Ag/AgCl (1M KCl) with an amplitude of 50 mV, a step size of 1 mV, and at 300 Hz. […]
as §1

[3] = test system: tobramycin-binding aptamer; assay: Cyclic voltammetry (ΔEP / IP) interrogation of tobramycin-detecting E-AB sensors
Description: The magnitude of ΔEP in cyclic voltammetry can be used to interrogate changes in the apparent electron transfer kinetics of E-AB sensors. ΔEP is affected by a mass transfer (diffusional) component related to the conformation switching behavior of aptamers; thus, measured changes in ΔEP reflect target-binding induced changes in aptamer conformation. We first illustrate this effect employing tobramycin-detecting E-AB sensors (FIG. 5), which have been extensively validated in the literature and represent a well-understood model system. In these E-AB sensors, interrogation by cyclic voltammetry in the absence of target and at voltage scanning rates of ˜1-10 V·s^−1 results in voltammograms with a ΔEP ˜100 mV (FIG. 5A). However, the addition of a saturating concentration of tobramycin (10 mM) causes a significant increase in apparent electron transfer kinetics with a concomitant decrease in ΔEP to ˜30 mV (FIG. 5A, B). Similar measurements at varying tobramycin concentrations can be translated into dose-response curves (FIG. 5C). The dissociation constant estimated by extrapolating the mid-point of these dose-response curves to the x-axis, KD˜80 μM, is similar to previously reported KD measurements based on chronoamperometric and differential pulse measurements.
As with all E-AB interrogation methods, there is a tradeoff between the maximum signal gain observed by ΔEP and the apparent dissociation constant of the sensors. To illustrate this, we measured dose-response curves as shown in FIG. 5C at scanning rates ranging from 0.5 to 100 V·s^−1 (FIG. 6). Then, we determined the apparent dissociation constant at each scanning rate by performing a non-linear regression of the data sets using the Hill isotherm. […] Moreover, the shape of the voltammograms was distorted at fast scanning rates, preventing the accurate determination of ΔEP (FIG. 8). Thus, taking into consideration the results presented in FIGS. 7A and B, we determined that the best CV interrogation rate for tobramycin-detecting E-AB sensor was 5 V·s^−1.
E-AB interrogation via ΔEP achieves larger signal gains relative to interrogation based on CV peak heights. To illustrate this point, we measured dose-response curves at the optimal voltage scanning rate of 5 V·s^−1 and compared the response based on voltammogram peak currents, IP, at varying tobramycin concentrations relative to the proposed ΔEP-based method (FIG. 7C). To achieve a direct comparison between approaches, we calculated the relative change in signal at each concentration with respect to the signal measured in the absence of target (this is common practice in the field). By graphing IP vs concentration, we observed a ‘signal-on’ type of response, with IP increasing to a plateau of 20% relative signal change at saturation. Using ΔEP, in contrast, we observed a ‘signal-off’ type of response, with ΔEP decreasing by 80% relative signal change at saturation. […] On the other hand, ΔEP provides a signal-off response that is less desirable than the signal-on response achieved by monitoring IP. Typically, the use of signal-off sensing is sub-optimal for continuous monitoring in complex fluids, as matrix effects can induce signal decreases unrelated to fluctuations in target concentration that can be confounding during sensing.
ΔEP-based interrogation of E-AB sensors supports molecular measurements in complex media such as undiluted serum. Moreover, the approach can be used to interrogate E-AB sensors detecting different molecular targets. […] Furthermore, the relative change in ΔEP at 10 mM tobramycin was 30% less than the gain seen in phosphate-buffered saline. Both of these effects were previously reported for serum tobramycin E-AB measurements performed by chronoamperometry, confirming that ΔEP is not more prone to fouling than, for example, chronoamperometric current decay lifetimes. […]

[4] = target: vancomycin-binding aptamer; assay: Cyclic voltammetry ΔEP interrogation of vancomycin-detecting E-AB sensors in undiluted serum
Experimental: as §2, §3, §1

[5] = CV 5 V·s^−1, phosphate-buffered saline, relative to no target

SMILES: CCN(CC)CCOC(=O)c1ccc(N)cc1 [procaine]
- Kd (procaine-binding aptamer [1]): 1900 µM and ~2000 µM
- Kd (procaine-binding aptamer [2]; cyclic voltammetry, read-out: KD from calibration curve (ΔEP)): ~500 µM
- relative decrease in ΔEP at saturating concentration (procaine-binding aptamer [2]; saturating procaine): ~80%

SMILES: NC[C@H]1O[C@H](O[C@H]2[C@H](O)[C@@H](O[C@H]3O[C@H](CO)[C@@H](O)[C@H](N)[C@H]3O)[C@H](N)C[C@@H]2N)[C@H](N)C[C@@H]1O [tobramycin]
- relative change in ΔEP in undiluted serum, less than the gain seen in phosphate-buffered saline ([3]; 10 mM tobramycin, undiluted serum vs phosphate-buffered saline): 30%
- IP (peak current) increase, relative signal change at saturation (signal-on) [3, 5]: 20%
- ΔEP decrease, relative signal change at saturation (signal-off) [3, 5]: 80%
- Kd ([3]; CV at 5 V·s^−1, phosphate-buffered saline, Hill fit, 5 electrodes, read-out: KD (dissociation constant from ΔEP dose-response curve)): 80 ± 7 µM
- ΔEP (peak-to-peak separation) after target addition ([3]; saturating tobramycin 10 mM, without target ~100 mV, scanning rates ~1-10 V·s^−1): ~30 mV
- affinity in undiluted serum relative to phosphate-buffered saline ([3]; undiluted serum, ΔEP-based interrogation): significant decrease in affinity

SMILES: CN[C@H](CC(C)C)C(=O)N[C@H]1C(=O)N[C@@H](CC(N)=O)C(=O)N[C@H]2C(=O)N[C@H]3C(=O)N[C@H](C(=O)N[C@H](C(=O)O)c4cc(O)cc(O)c4-c4cc3ccc4O)[C@H](O)c3ccc(c(Cl)c3)Oc3cc2cc(c3O[C@@H]2O[C@H](CO)[C@@H](O)[C@H](O)[C@H]2O[C@H]2C[C@](C)(N)[C@H](O)[C@H](C)O2)Oc2ccc(cc2Cl)[C@H]1O [vancomycin]
- Kd ([4]; read-out: KD from serum calibration curve (ΔEP)): ~60 µM
- total relative change in ΔEP at saturating concentration ([4]; saturating vancomycin): ~50%
